Test results published in US9469650B2, “Melampomagnolide B derivatives” (BOARD OF TRUSTEES OF THE UNIVERSITY OF ARKANSAS, priority 2013, dated 2016).
Where two headings read alike, the source gives them in different places.

How the values were obtained:
ACHN = assay: panel of 60 human tumor cell lines, growth inhibition (Renal Cancer); details: Homo sapiens
SF-295 = assay: panel of 60 human tumor cell lines, growth inhibition (CNS Cancer); details: Homo sapiens
UO-31 = assay: panel of 60 human tumor cell lines, growth inhibition (Renal Cancer); details: Homo sapiens
K-562 = assay: panel of 60 human tumor cell lines, growth inhibition (Leukemia)
M14 = assay: panel of 60 human tumor cell lines, growth inhibition (Melanoma); details: Homo sapiens
LOX IMVI = assay: as above; details: Homo sapiens
SR = assay: panel of 60 human tumor cell lines, growth inhibition (Leukemia); details: Homo sapiens
SW-620 = assay: panel of 60 human tumor cell lines, growth inhibition (Colon Cancer); details: Homo sapiens; for GI50: SW-620, SW-620
SNB-19 = assay: panel of 60 human tumor cell lines, growth inhibition (CNS Cancer); details: Homo sapiens
SF-268 = assay: as above; details: Homo sapiens
CAKI-1 = assay: panel of 60 human tumor cell lines, growth inhibition (Renal Cancer); details: Homo sapiens
SK-MEL-28 = assay: panel of 60 human tumor cell lines, growth inhibition (Melanoma); details: Homo sapiens
MOLT-4 = assay: panel of 60 human tumor cell lines, growth inhibition (Leukemia); details: Homo sapiens
HS 578T = assay: panel of 60 human tumor cell lines, growth inhibition (Breast Cancer); details: Homo sapiens, Hs-578T
NCI-H226 = assay: panel of 60 human tumor cell lines, growth inhibition (Non-Small Cell Lung Cancer); details: Homo sapiens
HCC-2998 = assay: panel of 60 human tumor cell lines, growth inhibition (Colon Cancer); details: Homo sapiens
T-47D = assay: panel of 60 human tumor cell lines, growth inhibition (Breast Cancer); details: Homo sapiens, T47D
SNB-75 = assay: panel of 60 human tumor cell lines, growth inhibition (CNS Cancer); details: Homo sapiens

C=C1C(=O)O[C@H]2[C@H]1CC/C(COC(=O)NCCN1CCOCC1)=C\CC[C@@]1(C)O[C@@H]21 [JVM 57, ((1aR,7aS,10aS,10bS,E)-1a-methyl-8-methylene-9-oxo-1a,2,3,6,7,7a,8,9,10a,10b-decahydrooxireno[2′,3′:9,10]-cyclodeca[1,2-b]furan-5-yl)-methyl(2-morpholinoethyl)carbamate]
GI50 (ACHN): 3.74 µM
CC50 (ACHN; read-out: LC50): 44.3 µM
IC (TGI) (ACHN; read-out: TGI): 14.3 µM
GI50 (SF-295; SF-295): > 100 µM
CC50 (SF-295; SF-295, read-out: LC50): > 100 µM
IC (TGI) (SF-295; SF-295, read-out: TGI): > 100 µM
GI50 (UO-31; UO-31): 10.7 µM
CC50 (UO-31; UO-31, read-out: LC50): 54.5 µM
IC (TGI) (UO-31; UO-31, read-out: TGI): 24.1 µM
GI50 (K-562; Homo sapiens, K562): 3.37 µM
CC50 (K-562; Homo sapiens, K562, read-out: LC50): > 100 µM
TGI (K-562; K-562): 2.88E−5
Percent Growth (K-562; K-562, Log10 Concentration −4.0): −16%
Percent Growth (K-562; K-562, Log10 Concentration −5.0): 14%
Percent Growth (K-562; K-562, Log10 Concentration −6.0): 90%
Percent Growth (K-562; K-562, Log10 Concentration −7.0): 99%
Percent Growth (K-562; K-562, Log10 Concentration −8.0): 100%
GI50 (M14; M14): 7.97 µM
CC50 (M14; M14, read-out: LC50): 58.5 µM
IC (TGI) (M14; M14, read-out: TGI): 23.1 µM
GI50 (LOX IMVI): 4.84 µM
GI50 (LOX IMVI; 5-dose assay): 4.84 µM
CC50 (LOX IMVI; read-out: LC50): 47 µM
IC (TGI) (LOX IMVI; read-out: TGI): 17.5 µM
GI50 (SR): 3.65 µM
CC50 (SR; read-out: LC50): > 100 µM
IC (TGI) (SR; read-out: TGI): 25.1 µM
GI50 (SW-620): 3.48 µM
GI50 (SW-620; 5-dose assay): 3.48 µM
CC50 (SW-620; SW-620, read-out: LC50): 64.8 µM
IC (TGI) (SW-620; SW-620, read-out: TGI): 13.9 µM
GI50 (SNB-19; SNB-19): 45.3 µM
CC50 (SNB-19; SNB-19, read-out: LC50): > 100 µM
IC (TGI) (SNB-19; SNB-19, read-out: TGI): > 100 µM
GI50 (SF-268; SF-268): 14.5 µM
CC50 (SF-268; SF-268, read-out: LC50): 64.4 µM
IC (TGI) (SF-268; SF-268, read-out: TGI): 30.5 µM
GI50 (CAKI-1; CAKI-1): 4.31 µM
CC50 (CAKI-1; CAKI-1, read-out: LC50): 52.7 µM
IC (TGI) (CAKI-1; CAKI-1, read-out: TGI): 17.7 µM
GI50 (SK-MEL-28; SK-MEL-28): 10.5 µM
CC50 (SK-MEL-28; SK-MEL-28, read-out: LC50): 47.2 µM
IC (TGI) (SK-MEL-28; SK-MEL-28, read-out: TGI): 22.2 µM
Percent Growth (HL-60(TB); Log10 Concentration −4.0): −55%
Percent Growth (HL-60(TB); Log10 Concentration −5.0): 14%
Percent Growth (HL-60(TB); Log10 Concentration −6.0): 95%
Percent Growth (HL-60(TB); Log10 Concentration −7.0): 101%
Percent Growth (HL-60(TB); Log10 Concentration −8.0): 100%
GI50 (MOLT-4; MOLT-4): 5 µM
CC50 (MOLT-4; MOLT-4, read-out: LC50): > 100 µM
IC (TGI) (MOLT-4; MOLT-4, read-out: TGI): 22.9 µM
GI50 (HS 578T): 20.1 µM
CC50 (HS 578T; read-out: LC50): > 100 µM
IC (TGI) (HS 578T; read-out: TGI): > 100 µM
GI50 (NCI-H226; NCI-H226): 42.7 µM
CC50 (NCI-H226; NCI-H226, read-out: LC50): > 100 µM
IC (TGI) (NCI-H226; NCI-H226, read-out: TGI): > 100 µM
GI50 (HCC-2998; HCC 2998): 19.7 µM
CC50 (HCC-2998; HCC 2998, read-out: LC50): 72.3 µM
IC (TGI) (HCC-2998; HCC 2998, read-out: TGI): 37.7 µM
GI50 (T-47D): 6.32 µM
CC50 (T-47D; read-out: LC50): 71.5 µM
IC (TGI) (T-47D; read-out: TGI): 23.2 µM
GI50 (SNB-75; SNB-75): 19.5 µM
CC50 (SNB-75; SNB-75, read-out: LC50): > 100 µM
IC (TGI) (SNB-75; SNB-75, read-out: TGI): > 100 µM
